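Each compound was tested at five concentrations against cells in 96-well plates for 48 hours. GI50: concentration for 50% inhibition of growth. At the TGI there is no net growth.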
Experiments:
Assay in all cases: NCI tumour cell line growth inhibition, 48 h
CAKI-1 renal = tested on: CAKI-1 renal
OVCAR-5 ovarian = tested on: OVCAR-5 ovarian
RXF 393 renal = tested on: RXF 393 renal
U251 CNS = tested on: U251 CNS
HL-60(TB) leukemia = tested on: HL-60(TB) leukemia
KM12 colon = tested on: KM12 colon
HCC-2998 colon = tested on: HCC-2998 colon
SK-MEL-2 melanoma = tested on: SK-MEL-2 melanoma
K-562 leukemia = tested on: K-562 leukemia
SK-MEL-5 melanoma = tested on: SK-MEL-5 melanoma

Compound | TGI (CAKI-1 renal) [µM] | TGI (OVCAR-5 ovarian) [µM] | TGI (RXF 393 renal) [µM] | TGI (U251 CNS) [µM] | TGI (HL-60(TB) leukemia) [µM] | TGI (KM12 colon) [µM] | TGI (HCC-2998 colon) [µM] | TGI (SK-MEL-2 melanoma) [µM] | TGI (K-562 leukemia) [µM] | TGI (SK-MEL-5 melanoma) [µM] | GI50 (CAKI-1 renal) [µM] | GI50 (OVCAR-5 ovarian) [µM] | GI50 (RXF 393 renal) [µM] | GI50 (U251 CNS) [µM] | GI50 (HL-60(TB) leukemia) [µM] | GI50 (KM12 colon) [µM] | GI50 (HCC-2998 colon) [µM] | GI50 (SK-MEL-2 melanoma) [µM] | GI50 (K-562 leukemia) [µM] | GI50 (SK-MEL-5 melanoma) [µM]
Cc1ccc(C)c(NC(=O)C(=O)Nn2c(=S)[nH]c3ccccc3c2=O)c1 | > 100 | > 100 | > 100 | > 100 | > 100 | > 100 | > 100 | > 100 | > 100 | > 100 | – | – | – | – | – | – | – | – | – | –
C[C@H]1CC[C@@H]2[C@@H](C)[C@H]3[C@H](C[C@H]4[C@@H]5CC=C6C[C@@H](O)CC[C@]6(C)[C@H]5CC[C@]34C)N2C1 | > 100 | > 100 | 46.1 | > 100 | 54 | > 100 | > 100 | > 100 | – | > 100 | – | – | – | – | – | – | – | – | – | –
CN(C)C(=S)/N=c1\ss/c(=N\S(=O)(=O)c2ccccc2)n1C | > 100 | > 100 | > 100 | > 100 | > 100 | > 100 | > 100 | > 100 | > 100 | > 100 | – | – | – | – | – | – | – | – | – | –
C[C@H]1CCC2C(OC(=O)[C@@H]2CN(C)C)[C@]2(C)C(=O)C=CC12O (stereo partly specified) | 24.2 | 34.1 | 4.72 | 38.8 | 7.18 | 15.1 | 18.2 | > 54.4 | > 55 | 20.3 | – | – | – | – | – | – | – | – | – | –
COc1ccc(C2C3=C(COC3=O)N(CCO)c3cc4c(cc32)CCC4)cc1 (stereo unspecified) | 27.7 | > 50 | 27.1 | > 50 | 3.98 | > 50 | 25.8 | 4.74 | > 50 | > 50 | 3.1 | > 50 | 4.24 | 3.16 | 1.18 | 2.31 | 5.76 | 1.45 | 1.69 | 2.38
CC1(C2CCC3(C)C(C2)C3Sc2ccccc2)OCCO1 (stereo unspecified) | 51.4 | 49.9 | 32.4 | 42.8 | 29.7 | 79.2 | 39.2 | 34.3 | 43.7 | 34 | – | – | – | – | – | – | – | – | – | –
C=C(CN1CCN(c2ccc(F)c(Cl)c2)CC1)c1ccc(C(=O)Nc2ccccc2N)cc1 | 77.8 | > 100 | 39.2 | 23.7 | 4.31 | > 100 | 24.9 | 64 | 14.2 | 22.3 | 4.12 | 15.1 | 3.84 | 4.42 | 1.64 | 4.07 | 9.47 | 6.12 | 2.41 | 5.62
CC(C)OP(=O)(OC(C)C)/C(C#N)=C/c1c[nH]c2ccccc12 | > 100 | > 100 | > 100 | > 100 | > 100 | > 100 | > 100 | > 100 | > 100 | > 100 | – | – | – | – | – | – | – | – | – | –
CNC(=O)c1cc(-c2ccc(F)cc2)cc(-c2ccc(S(=O)(=O)N3CCCC3)cc2)c1N | > 25 | > 25 | > 25 | > 25 | > 25 | > 25 | > 25 | > 25 | > 25 | > 25 | 12.6 | > 25 | 14.7 | 15.1 | 7.41 | 16.6 | > 25 | > 25 | 20.4 | 12.9
CNc1nc(-c2ccc3c(N)n[nH]c3c2)cc(N2C[C@@H](C(=O)NC3CCCCC3)CC[C@H]2C)n1 | 20.6 | 16.8 | 8.78 | 17.9 | 18.5 | 22.4 | 21.7 | 8.13 | 39 | 13.9 | 1.14 | 3.43 | 1.31 | 3.88 | 2.68 | 8.37 | 8.53 | 1.18 | 3.78 | 2.84
CCN1CCC(O)(/C=C/c2ccccc2)C(C(=O)/C=C/c2ccccc2)C1 (stereo unspecified) | 6.44 | 8.38 | 3.24 | 6.67 | 4.08 | 3.44 | 4.01 | 7.25 | – | 12.2 | – | – | – | – | – | – | – | – | – | –
O=C1/C(=C/c2ccc(O)cc2)Oc2ccccc21 | > 100 | > 100 | > 100 | > 100 | 92.9 | > 100 | > 100 | > 100 | > 100 | > 100 | – | – | – | – | – | – | – | – | – | –
CC1=C(SCCC(=O)OC(C[Se]C2=C(C)C(=O)c3ccccc3C2=O)C(=O)NC(C)(C)C)C(=O)c2ccccc2C1=O (stereo unspecified) | 3.36 | 3.08 | 3.33 | 1.57 | 2.39 | 2.18 | 2.96 | 3.65 | 2.59 | 2.86 | 1.65 | 1.69 | 1.73 | 0.45 | 0.68 | 0.86 | 1.59 | 2.04 | 0.774 | 1.52
COC(=O)C#CC(N)=O | > 67.1 | > 100 | > 100 | > 100 | 19.8 | > 100 | > 100 | > 100 | 60.1 | > 100 | – | – | – | – | – | – | – | – | – | –
CSc1nc2ccc(C)cc2cc1/C=C1/C=C(c2ccccc2)NC1=O | 10.9 | > 100 | – | 3.68 | > 100 | 82.9 | > 100 | 30.4 | > 100 | > 100 | 1.21 | 19.3 | 3.06 | 0.602 | > 100 | 3.13 | > 100 | 6.31 | 8.83 | 21.3
CC(=O)OC1=C(CC(C)(C)C)C(=O)c2ccccc2C1=O | > 100 | – | 82.7 | > 100 | 44.5 | > 100 | > 100 | 99.4 | 39.9 | 51.3 | – | – | – | – | – | – | – | – | – | –

Reference: PubChem BioAssay (NCI)
